Assay results published in PubChem BioAssay AID623929 (Vanderbilt Specialized Chemistry Center, 2012).

These molecules were tested against Metabotropic glutamate receptor 2 (Rattus norvegicus) (UniProt P31421) (assay: PubChem AID 623929). Conditions: HEK293 GIRK rat mGlu2, thallium flux fluorescence.
Metabotropic glutamate receptor 2 (Rattus norvegicus), sequence (P31421 whole entry, looked up): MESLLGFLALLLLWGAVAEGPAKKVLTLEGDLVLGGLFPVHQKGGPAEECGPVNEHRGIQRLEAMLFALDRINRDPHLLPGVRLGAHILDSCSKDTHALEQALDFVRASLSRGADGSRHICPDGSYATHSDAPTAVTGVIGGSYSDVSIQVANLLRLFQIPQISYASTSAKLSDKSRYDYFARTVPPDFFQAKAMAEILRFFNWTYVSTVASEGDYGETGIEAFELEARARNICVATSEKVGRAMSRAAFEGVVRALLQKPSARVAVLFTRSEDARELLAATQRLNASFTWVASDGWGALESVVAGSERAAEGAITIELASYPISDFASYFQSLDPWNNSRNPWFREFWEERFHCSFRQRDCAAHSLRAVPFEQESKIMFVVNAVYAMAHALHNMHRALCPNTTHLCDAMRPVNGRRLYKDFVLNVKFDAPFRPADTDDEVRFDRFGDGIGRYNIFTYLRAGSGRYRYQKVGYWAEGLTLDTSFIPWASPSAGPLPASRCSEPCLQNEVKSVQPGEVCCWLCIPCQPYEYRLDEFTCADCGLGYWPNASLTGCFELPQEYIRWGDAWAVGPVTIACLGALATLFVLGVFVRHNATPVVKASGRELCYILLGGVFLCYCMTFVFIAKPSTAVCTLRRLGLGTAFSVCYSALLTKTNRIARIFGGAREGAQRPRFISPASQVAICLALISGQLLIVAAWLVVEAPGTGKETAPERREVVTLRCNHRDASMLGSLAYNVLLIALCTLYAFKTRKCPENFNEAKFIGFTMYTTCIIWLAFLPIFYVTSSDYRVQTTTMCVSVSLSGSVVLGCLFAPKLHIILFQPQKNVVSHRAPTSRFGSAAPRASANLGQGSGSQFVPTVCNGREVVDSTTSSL

IC50	SMILES
10 µM	COc1ccc(C#Cc2ccc(C(=O)N3CCCC(CO)C3)cc2)cc1 (stereo not drawn)
10 µM	COc1ccc(C#Cc2ccc(C(=O)N3CCC[C@@H](CO)C3)cc2)cc1
10 µM	COc1ccc(C#Cc2ccc(C(=O)N3CCC[C@H](CO)C3)cc2)cc1
